Test results published in PMC6556873, “Rapid Covalent-Probe Discovery by Electrophile-Fragment Screening” (Journal of the American Chemical Society, 2019).
Where two headings read alike, the source gives them in different places.

Columns and labels:
in vitro [1] = assay: in vitro; set-up: species or system CCD841, HEK293; conditions: human, hb2 cells, read-out: HB-2 Cells Viability (%)
in vitro [2] = assay: in vitro; set-up: species or system HB2, CCD841; conditions: human, hek293 cells
NUDT7 = target: T1, NUDT7 (Homo sapiens, UniProt P0C024); set-up: Intact protein LC/MS covalent labelling, fragments in pools of five, 200 uM each, 4 °C; conditions: 24 h, 4 °C, pool of five; 200 µM; covalent
T1 construct: residues 14-235, E. coli, pNIC28-Bsa4, N-terminal His6 tag removed by TEV, construct 26672 Da
T1 sequence (P0C024 14-235): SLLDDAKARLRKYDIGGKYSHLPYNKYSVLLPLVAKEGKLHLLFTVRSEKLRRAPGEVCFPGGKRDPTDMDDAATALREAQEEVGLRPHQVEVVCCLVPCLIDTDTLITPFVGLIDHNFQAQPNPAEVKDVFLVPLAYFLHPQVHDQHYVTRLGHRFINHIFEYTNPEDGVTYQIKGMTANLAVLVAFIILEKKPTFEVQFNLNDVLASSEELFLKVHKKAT
Experimental: (§1) Incubations were performed at 200 μM for each compound and 2 μM of protein (10 μM for BSA) for 24 h at 4 °C with moderate shaking. Incubation buffers varied among proteins (PBS pH 7.4 for QSOX1 and BSA; 10 mM HEPES pH 7.5, 0.3 M NaCl, 0.5 mM TCEP for PCAF, UPS8, and NUDT7; […]; 10 mM Na2HPO4 pH 7.5 100 mM NaCl 5 mM β-mercaptoethanol for NV3CP; 20 mM Na phosphate pH 7.5 for NNMT; […]. The reaction was stopped by quenching with formic acid, 0.4% final concentration. Each protein was incubated with the electrophilic library in pools of five compounds per well. The pool’s composition maximized the difference in mass between fragments in the same well. Incubations were performed with each fragment at 200 μM, for 24 h at 4 °C, to allow the screening of proteins that are not stable for long time periods at higher temperatures. Following incubation, we used intact protein [compound left out] chromatography/mass spectrometry (LC/MS) to identify the fragments and quantify their labeling (Figure 3A). […] There was good agreement between the percent of labeling of NUDT7 by 100 random individual compounds and that obtained in pools of five (R^2=0.78; Figure S6 and Data set 2 in the Supporting Information).

OTUB2 (OTUB2A) = target: T2, OTUB2 (OTUB2A) (Homo sapiens, UniProt Q96DC9); set-up: Intact protein LC/MS covalent labelling, fragments in pools of five, 200 uM each, 4 °C; conditions: 24 h, 4 °C, pool of five; 200 µM; covalent
T2 construct: full length residues 1-234, E. coli BL21(DE3)-R3, His tag removed by TEV, construct 27312 Da
T2 sequence (Q96DC9 1-234): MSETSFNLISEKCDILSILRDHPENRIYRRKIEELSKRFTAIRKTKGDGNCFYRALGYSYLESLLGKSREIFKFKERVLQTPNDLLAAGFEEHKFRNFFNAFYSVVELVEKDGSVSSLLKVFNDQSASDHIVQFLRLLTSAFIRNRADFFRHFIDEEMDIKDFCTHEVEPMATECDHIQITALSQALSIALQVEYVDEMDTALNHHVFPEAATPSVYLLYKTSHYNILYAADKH
Experimental: as §1

PCAF = target: T3, PCAF (Homo sapiens, UniProt Q92831); set-up: Intact protein LC/MS covalent labelling, fragments in pools of five, 200 uM each, 4 °C; conditions: 24 h, 4 °C, pool of five; 200 µM; covalent
T3 construct: gene KAT2B
T3 sequence (Q92831 whole entry, the tested form may be a part): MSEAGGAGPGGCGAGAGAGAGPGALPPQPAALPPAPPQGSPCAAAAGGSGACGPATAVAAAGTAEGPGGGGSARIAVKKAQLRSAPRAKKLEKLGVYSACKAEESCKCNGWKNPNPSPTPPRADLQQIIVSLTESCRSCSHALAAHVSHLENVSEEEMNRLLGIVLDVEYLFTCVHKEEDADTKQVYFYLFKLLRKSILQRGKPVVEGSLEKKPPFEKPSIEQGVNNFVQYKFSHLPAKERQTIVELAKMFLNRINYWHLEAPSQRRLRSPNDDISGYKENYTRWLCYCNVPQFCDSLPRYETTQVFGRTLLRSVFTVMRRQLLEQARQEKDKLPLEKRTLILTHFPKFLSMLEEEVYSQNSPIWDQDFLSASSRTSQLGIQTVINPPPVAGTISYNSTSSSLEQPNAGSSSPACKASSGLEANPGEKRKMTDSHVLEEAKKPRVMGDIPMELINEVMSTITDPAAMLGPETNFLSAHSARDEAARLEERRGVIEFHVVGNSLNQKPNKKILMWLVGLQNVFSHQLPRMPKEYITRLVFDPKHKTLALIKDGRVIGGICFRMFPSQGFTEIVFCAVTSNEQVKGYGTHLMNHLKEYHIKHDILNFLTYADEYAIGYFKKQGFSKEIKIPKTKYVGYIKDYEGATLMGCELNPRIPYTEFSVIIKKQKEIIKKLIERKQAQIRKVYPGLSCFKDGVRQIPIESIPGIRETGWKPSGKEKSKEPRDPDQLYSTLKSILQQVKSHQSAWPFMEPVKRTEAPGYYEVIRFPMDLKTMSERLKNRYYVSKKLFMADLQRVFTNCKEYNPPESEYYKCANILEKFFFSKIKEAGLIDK
Experimental: as §1

BSA = target: T4, BSA (Bos taurus, UniProt P02769); set-up: Intact protein LC/MS covalent labelling, fragments in pools of five, 200 uM each, 4 °C; conditions: 24 h, 4 °C, pool of five; 200 µM; covalent
T4 construct: gene ALB
T4 sequence (P02769 whole entry, the tested form may be a part): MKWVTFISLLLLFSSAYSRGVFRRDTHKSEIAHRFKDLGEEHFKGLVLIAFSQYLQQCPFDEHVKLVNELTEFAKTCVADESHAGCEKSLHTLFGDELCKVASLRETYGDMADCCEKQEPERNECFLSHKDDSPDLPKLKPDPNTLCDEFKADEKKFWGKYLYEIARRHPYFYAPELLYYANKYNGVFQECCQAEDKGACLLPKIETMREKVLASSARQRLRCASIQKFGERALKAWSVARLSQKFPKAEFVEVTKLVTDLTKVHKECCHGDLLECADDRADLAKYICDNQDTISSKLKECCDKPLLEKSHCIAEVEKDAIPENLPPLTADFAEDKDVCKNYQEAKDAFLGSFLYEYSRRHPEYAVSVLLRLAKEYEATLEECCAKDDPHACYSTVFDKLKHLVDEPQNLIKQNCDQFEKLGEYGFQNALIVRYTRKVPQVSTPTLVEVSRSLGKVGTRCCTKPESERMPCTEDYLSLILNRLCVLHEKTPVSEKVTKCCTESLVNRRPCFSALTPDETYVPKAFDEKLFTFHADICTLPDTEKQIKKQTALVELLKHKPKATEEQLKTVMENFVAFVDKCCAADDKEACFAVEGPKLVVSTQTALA
Experimental: as §1

in vitro [3] = assay: in vitro; set-up: species or system HB2, HEK293; conditions: human, ccd841 cells

| SMILES | viability at 48 h, 10 µM (in vitro [1]) [%] | viability at 48 h, 10 µM (in vitro [2]) [%] | NUDT7 (NUDT7) | OTUB2 (OTUB2 (OTUB2A)) | PCAF (PCAF) | BSA (BSA) | viability at 48 h, 10 µM (in vitro [3]) [%] |
| --- | --- | --- | --- | --- | --- | --- | --- |
| Cc1nc(CN2CCN(C(=O)CCl)CC2)cs1 [PCM-0102630] | 92 | 67.4 | 0 | 0 | 0 | 0 | 79.3 |
| O=C(CCl)NNC(=O)CC1CCS(=O)(=O)C1 (stereo not shown) [PCM-0102998] | 101 | 112 | 0 | 0.69 | 0 | 0 | 100 |
| NS(=O)(=O)c1cccc(NC(=O)CCl)c1 [PCM-0102162] | 17.4 | 1.1 | 0 | 0.58 | 0 | 0 | 35.4 |
| O=C(CCl)N1CCCc2cccc(F)c21 [PCM-0103071] | 62.4 | 25.1 | 0.4 | 0 | 0 | 0 | 65.9 |
| C=CC(=O)N1CCN(c2ccnc(-c3ccccc3)n2)CC1 [PCM-0102515] | 88.8 | 73 | 0 | 0 | 0 | 0 | 105 |
| Cc1cc(NC(=O)CCl)n(-c2ccccc2C)n1 [PCM-0102699] | 58.9 | 36.9 | 0 | 0 | 0 | 0 | 81.6 |
| CC(NC(=O)CCl)C12CC3CC(CC(C3)C1)C2 (stereo not shown) [PCM-0102402] | 67.3 | 55.2 | 0.07 | 0.24 | 0 | 0 | 73.3 |
| O=C(CCl)Nc1ncc(Br)s1 [PCM-0102326] | 38 | 23 | 0 | 0.06 | 0 | 0 | 47.7 |
| Cc1sc2nc(-c3cccc(NC(=O)CCl)c3)[nH]c(=O)c2c1C [PCM-0102264] | 64.6 | 61.2 | 0 | 0.13 | 0 | 0 | 92.8 |
| C=CC(=O)NCC1CC12CCOCC2 (stereo not shown) [PCM-0102481] | 97 | 103 | 0 | 0 | 0 | 0 | 110 |
| C=CC(=O)NC1CCCN(c2cnn(C)c2)C1 (stereo not shown) [PCM-0102480] | 99.5 | 91.8 | 0 | 0 | 0 | 0 | 96.4 |
| O=C1CC(C(F)(F)F)N(C(=O)CCl)c2ccccc2N1 (stereo not shown) [PCM-0102363] | 59.3 | 40.4 | 0.28 | 0 | 0 | 0.1 | 74.6 |
| O=C(CCl)NCC1Cc2ccccc2O1 (stereo not shown) [PCM-0103020] | 99.1 | 87.1 | 0 | 0 | 0 | 0 | 88.9 |
| COC(=O)c1ccc(C)c(NC(=O)CCl)c1 [PCM-0103027] | 34.3 | 22.1 | 0.05 | 0 | 0 | 0 | 54.7 |
| O=C(CCl)Nc1ccc(Cl)nc1 [PCM-0102891] | 31.5 | 9 | 0.25 | 0 | 0 | 0 | 33.2 |
| C=CC(=O)N1CCN(C(=O)OC(C)(C)C)CC1 [PCM-0102419] | 100 | 90.3 | 0.16 | 0 | 0 | 0 | 104 |
| O=C(CCl)N(C1CCCCC1)C1CCS(=O)(=O)C1 (stereo not shown) [PCM-0102760] | 49.7 | 17.4 | 0.08 | 0 | 0 | 0 | 31.1 |
| Cc1cc(C)c(C(C)NC(=O)CCl)cc1C (stereo not shown) [PCM-0102879] | 87.3 | 59.6 | 0 | 0.17 | 0 | 0 | 83.7 |
| O=C(CCl)Nc1ccc(N2CCCCC2)cc1 [PCM-0102612] | 41.7 | 57.2 | 0 | 0.37 | 0 | 0 | 55.2 |
| O=C(CCl)Nc1ccc(F)cc1F [PCM-0103004] | 54.2 | 32 | 0 | 0.26 | 0 | 0 | 62.1 |
| O=C(CCl)N1CCOCC1C1CC1 (stereo not shown) [PCM-0102870] | 80.6 | 56.7 | 0.17 | 0 | 0 | 0 | 89.5 |
| C=CC(=O)NC(C#N)C(C)C (stereo not shown) [PCM-0102529] | 102 | 89.7 | 0 | 0 | 0 | 0 | 98.9 |
